Experimental data from US20240335429A1, “MOLECULAR GLUE AND SALL4 DEGRADER” (National University of Singapore, priority 2021, published 2024).

What was measured:
SALL4 (1-300aa) protein = biological target: T1, SALL4 (1-300aa) protein (Homo sapiens, UniProt Q9UJQ4); experiment: Thermal shift assay (TSA) with Sypro Orange; assay type: binding
T1 construct: SALL4 (1-300aa) cloned into this vector was expressed with the N-terminal 6-His tags; His6 (pET His6 TEV LIC vector 2B-T, TEV site) (N); made in house; host or cells: E. coli BL21 (DE3)/pLysS
T1 sequence (Q9UJQ4 1-300): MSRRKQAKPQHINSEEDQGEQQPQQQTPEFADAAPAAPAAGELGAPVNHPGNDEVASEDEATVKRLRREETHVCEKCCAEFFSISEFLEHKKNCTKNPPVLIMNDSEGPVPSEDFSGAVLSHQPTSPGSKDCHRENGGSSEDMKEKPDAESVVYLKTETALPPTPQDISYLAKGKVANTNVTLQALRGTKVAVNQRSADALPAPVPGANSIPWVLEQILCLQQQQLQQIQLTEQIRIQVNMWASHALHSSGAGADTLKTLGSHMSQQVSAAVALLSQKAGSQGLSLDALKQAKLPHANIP
Description: A library of 50,000 small molecules from the Novartis Biomedical Research Institute (NIBR) was screened at 50 μM and 100 μM against 13.8 μM of purified SALL4 (1-300aa) protein in the buffer containing potassium phosphate (100 mM) and NaCl (100 mM) at pH 7. Screening assay was performed in 384-well thin wall white PCR plates using LightCyler® 480 Real-Time PCR System (Roche Applied Sciences). A 7-min run was started at 30° C. and ended at 90° C. Sypro Orange was used as the sensitive fluorescent dye for monitoring thermal protein denaturation. Hits were defined as compounds that can induce a change in protein melting points 3 times higher than the standard deviations of the apo-protein melting point from DMSO control.
To experimentally assess the stoichiometry of the binding between SALL4 (1-300aa) and QE-18-WG07, the inventors titrated 13.8 μM of purified recombinant SALL4 (1-300aa) protein with 12 increasing concentrations of QE-18-WG07 and evaluated the dose-response correlation in the ΔTm shift by following the protocol for TSA in Example 7.

[1] = HCC mouse xenograft, tolerability (body, spleen, liver weight); assay type: in vivo
Description: Animals were maintained, and all animal work were performed following the protocols approved by the Institutional Animal Care and Use Committee. The SNU-398 cell line was cultured as described above in ‘Cell Culture’. To establish the SNU-398 xenografts, NOD.Cg−Prkdc^sc^i^dIl2rg^tm^1^Wjl/Sz (NSG) female mice (6-8 weeks) were anesthetized using 2% isoflurane USP, and 0.5×10^6 SNU-398 cells in 200 μL of 1:1 RPMI:Matrigel were subcutaneously injected to the mouse flanks. When tumors were palpable, mice were randomized to receive either QE treatment or vehicle containing 5% DMSO, 12.5% Ethanol, and 12.5% Cremophor EL in 70% 1× PBS. Freshly prepared vehicle or QE-18-WG07 was administered by intraperitoneal (IP) injection, once daily (qd) at 10 mg/kg in the pilot study and 5, 15, and 45 mg/kg for dose-expansion studies. Before each drug injection, mouse weight and tumor volume were monitored. Mice were euthanized once tumors reached more than 1.5 cm in diameter. The tumors were harvested, imaged and snap-frozen for storage at −80° C. until later use.

[2] = QE-18-WG07 0.0061 μM, 30 min incubation
[3] = QE-18-WG07 0.0122 μM, 30 min incubation
[4] = QE-18-WG07 0.0488 μM, 30 min incubation
[5] = QE-18-WG07 0.0977 μM, 30 min incubation
[6] = QE-18-WG07 0.1953 μM, 30 min incubation
[7] = QE-18-WG07 0.7813 μM, 30 min incubation
[8] = QE-18-WG07 1.5625 μM, 30 min incubation
[9] = QE-18-WG07 3.1250 μM, 30 min incubation
[10] = QE-18-WG07 6.2500 μM, 30 min incubation
[11] = QE-18-WG07 12.5000 μM, 30 min incubation
[12] = QE-18-WG07 25.0000 μM, 30 min incubation
[13] = QE-18-WG07 50.0000 μM, 30 min incubation

COc1ccccc1NC(=O)Nc1ccc([N+](=O)[O-])cc1O [QE-18-WG07]
concentration at which ΔTm saturation occurs (SALL4 (1-300aa) protein; 13.8 μM SALL4 (1-300aa), 30 min incubation): ≥ 12.5 µM
SALL4 (1-300) Melting Temperature Shift (° C.) Rep 1 (SALL4 (1-300aa) protein; [2]): −0.357 °C
SALL4 (1-300) Melting Temperature Shift (° C.) Rep 2 (SALL4 (1-300aa) protein; [2]): −0.357 °C
SALL4 (1-300) Melting Temperature Shift (° C.) Rep 1 (SALL4 (1-300aa) protein; [3]): −0.267 °C
SALL4 (1-300) Melting Temperature Shift (° C.) Rep 2 (SALL4 (1-300aa) protein; [3]): −0.267 °C
SALL4 (1-300) Melting Temperature Shift (° C.) Rep 1 (SALL4 (1-300aa) protein; [4]): −0.077 °C
SALL4 (1-300) Melting Temperature Shift (° C.) Rep 2 (SALL4 (1-300aa) protein; [4]): −0.357 °C
SALL4 (1-300) Melting Temperature Shift (° C.) Rep 1 (SALL4 (1-300aa) protein; [5]): −0.357 °C
SALL4 (1-300) Melting Temperature Shift (° C.) Rep 2 (SALL4 (1-300aa) protein; [5]): −0.357 °C
SALL4 (1-300) Melting Temperature Shift (° C.) Rep 1 (SALL4 (1-300aa) protein; [6]): −0.267 °C
SALL4 (1-300) Melting Temperature Shift (° C.) Rep 2 (SALL4 (1-300aa) protein; [6]): −0.267 °C
SALL4 (1-300) Melting Temperature Shift (° C.) Rep 1 (SALL4 (1-300aa) protein; [7]): −0.167 °C
SALL4 (1-300) Melting Temperature Shift (° C.) Rep 2 (SALL4 (1-300aa) protein; [7]): −0.167 °C
SALL4 (1-300) Melting Temperature Shift (° C.) Rep 1 (SALL4 (1-300aa) protein; [8]): 0.503 °C
SALL4 (1-300) Melting Temperature Shift (° C.) Rep 2 (SALL4 (1-300aa) protein; [8]): 0.503 °C
SALL4 (1-300) Melting Temperature Shift (° C.) Rep 1 (SALL4 (1-300aa) protein; [9]): 0.413 °C
SALL4 (1-300) Melting Temperature Shift (° C.) Rep 2 (SALL4 (1-300aa) protein; [9]): 0.793 °C
SALL4 (1-300) Melting Temperature Shift (° C.) Rep 1 (SALL4 (1-300aa) protein; [10]): 0.703 °C
SALL4 (1-300) Melting Temperature Shift (° C.) Rep 2 (SALL4 (1-300aa) protein; [10]): 0.703 °C
SALL4 (1-300) Melting Temperature Shift (° C.) Rep 1 (SALL4 (1-300aa) protein; [11]): 1.373 °C
SALL4 (1-300) Melting Temperature Shift (° C.) Rep 2 (SALL4 (1-300aa) protein; [11]): 1.083 °C
SALL4 (1-300) Melting Temperature Shift (° C.) Rep 1 (SALL4 (1-300aa) protein; [12]): 1.273 °C
SALL4 (1-300) Melting Temperature Shift (° C.) Rep 2 (SALL4 (1-300aa) protein; [12]): 1.273 °C
SALL4 (1-300) Melting Temperature Shift (° C.) Rep 1 (SALL4 (1-300aa) protein; [13]): 1.273 °C
SALL4 (1-300) Melting Temperature Shift (° C.) Rep 2 (SALL4 (1-300aa) protein; [13]): 0.983 °C
ΔTm at 100 µM (SALL4 (1-300aa) protein; SALL4(1-300) melting temperature shift, mean ± SD (n = 2), [compound] = 100 μM, 30 min): 1.15 ± 0.01 °C
Thermal Shift Assay Type (SALL4 (1-300aa) protein; [compound] = 100 μM, 30 min): Positive shifter
tolerability (animal weight preservation, normal spleen weight) ([1]; 10 mg/kg daily, 10 days): well tolerated
weight loss in mice compared to vehicle ([1]; 10 mg/kg q.d., 10 days): did not induce significant weight loss
tolerability (negligible weight loss, normal spleen and liver weight) ([1]; 45 mg/kg daily, 2 weeks): well tolerated
weight loss in mice ([1]; 5, 15 and 45 mg/kg q.d., 15 days): did not induce significant weight loss
